Assay [1] addresses T1, OXA-48 (Klebsiella pneumoniae, UniProt Q6XEC0).
T1 construct: made in house; host or cells: E. coli BL21(DE3), T7 expression system
Briefly: Time-dependent inhibition of OXA-48. It counts as biochemical. The conditions noted are these: for dependence of AC50 on preincubation time with OXA-48: preincubation 0, 15, 30, 60, 90, 120, 180, 240 min. The procedure:
On this basis, compounds ID1 and ID2 as well as the irreversible reference inhibitor tazobactam were tested in dose–response against OXA-48 lactamase, by pre-incubating the compounds with the enzyme at different time points (0, 15, 30, 60, 90, 120, 180, 240 min) before starting the reaction upon addition of the nitrocefin substrate.
Experimental conditions were identical to the ones applied for the primary assay for HTS: 20 μL of 2X compounds with 1% DMSO; 10 μL 4X enzyme (0.0014 ng/µL OXA-48 final concentration) were dispensed into preincubation plate. The reaction buffer was: 20 mM Hepes pH 8.0, 12.5 mM NaCl, 0.005% BSA-pf, 0.0005% Brij-35.
Preincubation time was for a period spanning from 0 up to 240′ at rt between enzyme and compounds and for 15′ at rt between enzyme and control wells. The reactions were started by transferring of 15 μL of enzyme-compounds or enzyme-control from preincubation plate into assay plate adding 5 μL 4X nitrocefin substrate (25 µM final concentration) at different time points, at 0 (i.e., no preincubation)–15–30–60–90–120–180–240 min of preincubation between OXA-48 and compounds. Reading was at PHERAstar (BMG Labtechnologies), in kinetic for up to 60′ (λex: 485 nm; λem: 520 nm). Data were analyzed to determine the respective AC50 values obtained at all the tested preincubation time points.
b. If the AC50 value was inversely proportional to the preincubation time with OXA-48, the compound was assigned as non-reversible inhibitor.

The target in assay [2] is T1, OXA-48. The assay is described as follows: Apparent Km and Vmax of nitrocefin with inhibitor; Ki and α determination. It counts as biochemical. As to conditions: for type of reversible inhibition: Lineweaver–Burk plots, with respect to nitrocefin; for α value: mixed model inhibition fit. The procedure:
To further elucidate the type of reversible inhibition of compounds ID1 and ID2, double substrate (nitrocefin) and inhibitor titrations were run.
In this study, the characterization of the type of reversible inhibition was performed by the determination of the apparent Km and Vmax of nitrocefin in the presence of three concentrations of the selected inhibitors.
Stock AC30, AC50, and AC70 solutions for selected compounds were prepared at 200X in 100% DMSO. 2X compounds were prepared by diluting stock AC30, AC50 and AC70 solutions 1:100 in 1X reaction buffer.
20 μL of 2X compounds with 1% DMSO; 10 μL 4X enzyme (0.0014 ng/µL OXA-48 final concentration) were dispensed into preincubation plate and kept for 15′ at rt. […] Each compound ACn was tested in duplicate against each dose of nitrocefin. Compound activity was quantified on the fluorescence signal measured at 520 nm (kinetic measurement for 60 min of reaction). The initial velocity (V0) of the reaction was computed in the first 300′’ of measurements as robust slope. The slopes computed by Genedata Screener 13.0.5. were copied in GraphPad Prism (version 7.00, GraphPad Software Inc.) for the Michaelis-Menten analysis and the Lineweaver-Burk analysis. The average of slope replicates (n = 2) was transformed into double-reciprocal and linear regression analysis was applied.
a. When the Vmax value was independent from inhibitor concentration and the Km value of the substrate was directly proportional to the inhibitor concentration, the corresponding compound was assigned as competitive inhibitor.
V0 data obtained for the determination of apparent Km and Vmax of nitrocefin in the presence of three concentrations of the selected inhibitors, were used for the computation of Ki and a values using in GraphPad Prism (version 8.00, GraphPad Software Inc.) the mixed model inhibition/nonlinear regression curve fit method.

In assay [3] the test system is K. pneumoniae ATCC BAA-2524. Briefly: MIC by broth microdilution, β-lactam-resistant strain producing OXA-48. The class given is cell-based, Klebsiella pneumoniae. As to conditions: Klebsiella pneumoniae, ATCCBAA2524, no β-lactam, BLI tested at 32 µg/mL, read-out: MIC, BLI alone. An excerpt:
(§1) To evaluate the capability of restoring β-lactam susceptibility, the two most promising representatives of SC_2 (ID3) and SC_7 (ID2) were screened alone and in combination with ampicillin (AMP) and IMP against sensitive and resistant Gram-negative bacteria. Avibactam and tazobactam were also included in the MIC characterization as BLI reference compounds. Specifically, we used E. coli ATCC25922 as antibiotic-sensitive strain, while E. coli ATCC BAA-2523 and K. pneumoniae ATCC BAA-2524 as β-lactam-resistant bacteria, producing OXA-48 carbapenemase.
(§2) Test compounds and tazobactam were tested at 32 µg/mL, while avibactam was applied at 4 µg/mL. […] Both antibiotics were selected for the combination study as they can be hydrolyzed by the target OXA-48 enzyme.
(§3) MIC values were determined by the broth dilution method and interpreted using published guidelines described by Clinical and Laboratory Standards Institute (CLSI).
(§4) All BLIs were dissolved in 100% DMSO and they were tested at a fixed concentration of 32 µg/mL and 1% of DMSO final concentration. Avibactam was used as reference β-lactamase inhibitor. All antimicrobials were prepared in line with CLSI susceptibility testing standards. AMP (USP # 1033000; batch no. K1M493) was dissolved at 5.12 mg/mL, IMP (USP # 1337809; batch no. R038R0) and avibactam (Biochem # NXL 104; batch no. 20180726) were dissolved at 1.28 mg/mL in the respective solvents recommended by CLSI (2). Solutions at 4X the final concentrations of the test range were made in Cation adjusted Mueller-Hinton broth (CA-MHB, BD # 212322; batch no. 6117994; Expiry date: 29.02.2020) by serial dilutions, and then diluted 2-fold with CA-MHB (for antimicrobials alone), or with the BLIs/avibactam (for combinations of new/reference inhibitors and antimicrobials). Moreover, all BLIs were tested alone at a fixed concentration of 32 μg/mL. The final concentration of DMSO in the test tubes was 1% for each different combination.
(§5) 50 μL of each well were then transferred from the masterblock into 96-well plates to whom were then added 50 μL of the final inoculum. MIC tests were performed by broth microdilution in line with CLSI susceptibility testing standards. Bacterial inocula were prepared at ca. 1 × 10^6 CFU/mL by diluting 100-fold a 0.5 McFarland suspension in CA-MHB with TES (TREK Diagnostic Systems, Product code: T3462; Batch: 356347; Expiry date: 12-Jun-2019). 50 μL of antibacterial solutions at 2 × the final concentrations were diluted 2-fold with 50 μL of inoculum to give a final inoculum of ca. 5 × 10^5 CFU/mL and desired test concentrations of antibacterial agents. Test plates were incubated according to CLSI guidelines and read visually. MIC values corresponded to the first well with no visible growth.
(In general: Broth dilution looks for growth in wells or tubes with falling amounts of substance.)

Assay [4] concerns E. coli ATCC BAA-2523. The description is as above. It counts as cell-based, Escherichia coli. The conditions noted are these: Escherichia coli, ATCCBAA2523, no β-lactam, BLI tested at 32 µg/mL, read-out: MIC, BLI alone.
Text: as §1, §2, §3, §4, §5

T1 sequence (Q6XEC0 23-265, looked up): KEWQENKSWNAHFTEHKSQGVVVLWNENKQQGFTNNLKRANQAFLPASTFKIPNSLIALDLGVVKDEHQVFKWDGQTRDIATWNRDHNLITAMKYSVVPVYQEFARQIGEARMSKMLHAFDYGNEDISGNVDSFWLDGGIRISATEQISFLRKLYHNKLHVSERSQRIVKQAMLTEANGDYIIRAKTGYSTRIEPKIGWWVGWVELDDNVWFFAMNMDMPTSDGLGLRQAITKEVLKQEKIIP

`O=C(O)c1ccc(C=Nn2c(S)nnc2-c2ccccc2)cc1` [ID1]: the “dependence of AC50 on preincubation time with OXA-48” value (from here on “dependence of AC50”) in assay [1] was “independent on the preincubation time”. Besides, in assay [2], the “type of reversible inhibition” value is “competitive” and the α value stood at 5.50.
Usually MIC stands for the least concentration at which growth counts as inhibited. Consider `CCc1ccc(-c2n[nH]c3nc(-c4ccc(C(=O)O)cc4)cc(C(=O)O)c23)cc1` [ID2], for which the “dependence of AC50” value in assay [1] is “independent on the preincubation time”. The MIC in assay [3] was above 32 µg/mL. The MIC in assay [4] is above 32 µg/mL. For the same molecule, in assay [2], the “type of reversible inhibition” value is listed as “competitive” and the α value is reported as 5.44.
In the case of `C[C@]1(Cn2ccnn2)[C@H](C(=O)O)N2C(=O)C[C@H]2S1(=O)=O` [tazobactam, reference compound], the “AC50 after preincubation relative to AC50 without preincubation” value in assay [1] (plateau after 90 min of preincubation) is given as “almost six-fold lower”. In assay [1], the “dependence of AC50” value is “inversely proportional time-dependent inhibition”. Besides, the MIC in assay [3] and in assay [4] was above 32 µg/mL each time.
